The results in this text go back to US6893846B2, “Primers for use in detecting beta-lactamases” (priority 1998, dated 2005).

≈ marks a conversion by molar mass, not a printed value. Where two headings read alike, the source gives them in different places.

For assay [1], the system named is E. coli HB101 transformant (17 kb plasmid). The note with it: disk diffusion, Tr (17 kb) = transformant E. coli HB101. For orientation: In agar diffusion tests the substance spreads into inoculated agar from a disc or well.
Assay [2] concerns K. pneumoniae 225. The assay can be described thus: MicroScan Walkaway microdilution susceptibility test. Type of assay: cell-based, Klebsiella pneumoniae. The note with it: for MicroScan susceptibility result: K. pneumoniae 225; for MIC: Klebsiella pneumoniae, 225, read-out: MicroScan MIC. A general note: In broth dilution the organism is exposed to a series of concentrations in liquid medium.

In assay [3] the test system is E. aerogenes. The assay can be described thus: Disk diffusion susceptibility test. Type of assay: cell-based, Enterobacter aerogenes. To be noted: all the E. aerogenes strains. As for the experimental part: Antibiotic susceptibilities were determined by standard disk-diffusion (NCCLS Standard M2-A6) and agar-dilution (NCCLS Standard M7-A4) procedures. Disks were obtained from Becton Dickinson Microbiology Systems (Cockeysville, Md.). Disk-diffusion susceptibilities to the following antibiotics were determined, ampicillin; amoxicillin clavulanic acid; aztreonam; cefazolin; cefoxitin; cefuroxime; cefotaxime; ceftriaxone; ceftazidime; cefepime; imipenem; gentamicin; trimethoprim/sulfamethoxazole and ciprofloxacin. […] The following quality control strains were run simultaneously with the test organisms Escherichia coli ATCC 25922, Pseudomonas aeruginosa ATCC 27853, and E. coli ATCC 35218. Throughout this study, results were interpreted using NCCLS criteria for disk diffusion (NCCLS M2-A6) and broth dilution (NCCLS M7-A4).

In assay [4] the test system is K. pneumoniae 225. The assay can be described thus: NCCLS microdilution susceptibility test. Type of assay: cell-based, Klebsiella pneumoniae.
The next assay relates to K. pneumoniae. The assay is described as follows: Agar dilution MIC, South African isolates. To be noted: tzp with tazobactam 4 μg/ml. Type of assay: cell-based, Klebsiella pneumoniae. An excerpt: (§1) The strains were provided in response to a request for all strains of Enterobacteriaceae, lacking inducible beta-lactamases, that were intermediate or resistant to cefotaxime or ceftazidime. […]
(Agar dilution tests growth on a series of plates holding different concentrations.)

The subject of another assay is E. coli. The assay can be described thus: Agar dilution MIC, South African isolates. Type of assay: cell-based, Escherichia coli. To be noted: tzp with tazobactam 4 μg/ml.
Source text: as §1

For another assay, the system named is P. mirabilis. The assay can be described thus: Agar dilution MIC, South African isolates. Type of assay: cell-based, Proteus mirabilis. To be noted: 4 strains, tzp with tazobactam 4 μg/ml. An excerpt:
During a period of three months in 1993, […] strains of Klebsiella pneumoniae (13 blood, 5 burn, 7 wound, 11 tracheal isolates), 4 strains of Proteus mirabilis (all wound isolates) and 4 strains of Escherichia coli (1 blood, 1 burn, 2 wound isolates) were collected from patients at the following medical centers in South Africa: Tygerberg Hospital near Cape Town, King Edward VIII Hospital in Durban, Chris Hani Baragwanath Hospital in Soweto and Pretoria Academic Hospital in Pretoria. The strains were provided in response to a request for all strains of Enterobacteriaceae, lacking inducible beta-lactamases, that were intermediate or resistant to cefotaxime or ceftazidime. […] Therefore accurate prevalence data were not obtained.
Antibiotic susceptibility was determined by standard disk diffusion (NCCLS Standard M2-T4, 1994) and agar dilution (NCCLS Standard M7-T2, 1994) procedures. Standard powders of antimicrobial agents were kindly provided by the following companies: piperacillin and tazobactam (Lederle Laboratories, Wayne, N.J.); cefoxitin and imipenem, (Merck, Rathway, N.J.); cefotaxime, (Hoechst-Roussel Pharmaceuticals Inc., Somerville, N.J.); ceftazidime, (Glaxo Group Research Ltd., Greenford, England); aztreonam and cefepime, (Bristol-Myers Squibb, Princeton, N.J.). Disks for agar diffusion were obtained from Becton Dickinson Microbiology Systems (Cockeysville, Md.). For quality control purposes, the following quality control strains were run simultaneously with the test organisms E. coli ATCC 25922, Pseudomonas aeruginosa ATCC 27853, E. coli ATCC 35218, and Staphylococcus aureus ATCC 29213. Throughout this study, results were interpreted using NCCLS criteria for disk diffusion (NCCLS Standard M2-T4, 1994) and broth dilution (NCCLS Standard M7-T2, 1994).

Assay [5] relates to E. coli C600 transconjugant. To be noted: disk diffusion, Tc = transconjugate E. coli C600.
Assay [6] has as its system K. pneumoniae 225. The assay can be described thus: NCCLS disk diffusion assay. Type of assay: cell-based, Klebsiella pneumoniae. To be noted: Kleb 225; for Zone Size: disk diffusion.
Assay [7] relates to E. aerogenes. Type of assay: cell-based, Enterobacter aerogenes. As for the experimental part:
Antibiotic susceptibilities were determined by standard disk-diffusion (NCCLS Standard M2-A6) and agar-dilution (NCCLS Standard M7-A4) procedures. Disks were obtained from Becton Dickinson Microbiology Systems (Cockeysville, Md.). […] Throughout this study, results were interpreted using NCCLS criteria for disk diffusion (NCCLS M2-A6) and broth dilution (NCCLS M7-A4).

The mark [8] stands for this setting: resistance phenotype Kpn2, 28 strains.
The mark [9] stands for this setting: resistance phenotype Ec2, 1 strain.
Where [10] appears, read: resistance phenotype Kpn1, 8 strains.
Setting [11] is: resistance phenotype Kpn3 (K. pneumoniae Pit 68), 1 strain.
[12] abbreviates: resistance phenotype Ec1, 3 strains.

As for `NCC[C@H](O)C(=O)N[C@@H]1C[C@H](N)[C@@H](O[C@H]2O[C@H](CN)[C@@H](O)[C@H](O)[C@H]2O)[C@H](O)[C@H]1O[C@H]1O[C@H](CO)[C@@H](O)[C@H](N)[C@H]1O` [amikacin], the “Zone Size” value in [1] amounted to 12 mm. In the assay on K. pneumoniae 225 [2], the MicroScan susceptibility result was “Resistant” and the MIC – broadly, the lowest concentration found to suppress growth – is more than 32 µg/mL.

In the case of `CC1(C)S[C@@H]2[C@H](NC(=O)[C@H](N)c3ccccc3)C(=O)N2[C@H]1C(=O)O` [ampicillin], the “Zone Size” value in assay [1] amounted to 7 mm. Also, the Disk diffusion susceptibility result with E. aerogenes [3] is on record as “resistant”.

`Cc1nnc(SCC2=C(C(=O)O)N3C(=O)[C@@H](NC(=O)Cn4cnnn4)[C@H]3SC2)s1` [cefazolin] had an MIC against K. pneumoniae 225 [4] (Klebsiella pneumoniae, 225) of more than 64 µg/mL. Further, the Disk diffusion susceptibility result in the assay with E. aerogenes [3] was “resistant”.

`CO/N=C(\C(=O)N[C@@H]1C(=O)N2C(C(=O)[O-])=C(C[N+]3(C)CCCC3)CS[C@H]12)c1csc(N)n1` [cefepime]: the MIC range with K. pneumoniae (setting [8]) is 0.5 to 4 µg/mL; with E. coli (setting [9]), 2 µg/mL; with P. mirabilis it was 2 µg/mL. Besides, the lowest concentration to inhibit growth against K. pneumoniae 225 [4] (Klebsiella pneumoniae, 225) (MIC) was 1 µg/mL (≈ 2.08 µM).

The compound `C=CC1=C(C(=O)O)N2C(=O)[C@@H](NC(=O)/C(=N\OCC(=O)O)c3csc(N)n3)[C@H]2SC1` [cefixime] yielded an MIC with K. pneumoniae 225 [4] (Klebsiella pneumoniae, 225) of more than 64 µg/mL.

On to `CO[C@@]1(NC(=O)C2SC(=C(C(N)=O)C(=O)O)S2)C(=O)N2C(C(=O)O)=C(CSc3nnnn3C)CS[C@@H]21` (some centres unmarked) [cefotetan], for which the “Zone Size” value amounted to 30 mm in assay [1], 11 mm in assay [5] and 12 mm in the assay on K. pneumoniae 225 [6]. For the same compound, the MIC in the assay on K. pneumoniae 225 [2] turned out to be 16 µg/mL (≈ 27.8 µM).

For the compound `COCC1=C(C(=O)O)N2C(=O)[C@@H](NC(=O)/C(=N\OC)c3csc(N)n3)[C@H]2SC1` [cefpodoxime], inhibition of growth against K. pneumoniae 225 [4] (Klebsiella pneumoniae, 225) (MIC) required 64 µg/mL (≈ 150 µM).

As to `CO/N=C(\C(=O)N[C@@H]1C(=O)N2C(C(=O)O)=C(COC(N)=O)CS[C@H]12)c1ccco1` [cefuroxime], in the assay with E. aerogenes [3], the Disk diffusion susceptibility result was “resistant”. Moreover, in the assay on K. pneumoniae 225 [2], the MicroScan susceptibility result is on record as “Resistant” and the MIC is more than 16 µg/mL.

In the assay on K. pneumoniae 225 [4] (Klebsiella pneumoniae, 225), `CC(=O)OCC1=C(C(=O)O)N2C(=O)[C@@H](NC(=O)Cc3cccs3)[C@H]2SC1` [cephalothin] came in with an MIC of more than 64 µg/mL.

In the case of `O=C(N[C@H](CO)[C@H](O)c1ccc([N+](=O)[O-])cc1)C(Cl)Cl` [chloramphenicol], the “Zone Size” value in [1] is 22 mm; in assay [5] it was 12 mm; in the assay on K. pneumoniae 225 [6] it was 8 mm. Moreover, the MicroScan susceptibility result with K. pneumoniae 225 [2] is on record as “Resistant”. The MIC with K. pneumoniae 225 [2] was more than 16 µg/mL.

With `O=C(O)c1cn(C2CC2)c2cc(N3CCNCC3)c(F)cc2c1=O` [ciprofloxacin], the MIC came out at 0.5 µg/mL (≈ 1.51 µM) with K. pneumoniae 225 [4] (Klebsiella pneumoniae, 225) and 2 µg/mL (≈ 6.04 µM) in the assay on K. pneumoniae 225 [2]. Also, the entries for the “Zone Size” value (in assay [1]; in assay [5]; in the assay on K. pneumoniae 225 [6]) were 31 mm, 31 mm and 22 mm, respectively. For the same compound, the Disk diffusion susceptibility result with E. aerogenes [3] is “susceptible”. Moreover, in the assay with K. pneumoniae 225 [6], the Disk diffusion interpretation result is recorded as “susceptible”.

In the case of `C[C@@H](O)[C@H]1C(=O)N2C(C(=O)O)=C(SCCN=CN)C[C@H]12` [imipenem], the MIC range in the assay on K. pneumoniae (setting [10]) was 0.12 µg/mL; in the assay on K. pneumoniae (setting [8]), 0.12 to 1 µg/mL; in the assay with K. pneumoniae (setting [11]), 0.12 µg/mL; with E. coli (setting [12]), 0.12 µg/mL; in the assay with E. coli (setting [9]), 0.12 µg/mL; in the assay with P. mirabilis, 0.5 to 1 µg/mL. Further, the MIC range in the assay on E. aerogenes [7] (1 E. aerogenes strain with Bush group 1 and group 2be (SHV-3) enzymes) is 0.5 µg/mL (≈ 1.67 µM); with E. aerogenes [7] (1 E. aerogenes strain with Bush group 1 and group 2be (SHV-5) enzymes), 1 µg/mL (≈ 3.34 µM); in the assay on E. aerogenes [7] (29 E. aerogenes strains with Bush group 1 and group 2be (SHV-4) enzymes), 0.5 µg/mL (≈ 1.67 µM). Also, inhibition of growth in the assay on K. pneumoniae 225 [4] (Klebsiella pneumoniae, 225) (MIC) required 1 µg/mL (≈ 3.34 µM). Further, the “Zone Size” value was 33 mm in assay [1], 23 mm in [5] and 22 mm with K. pneumoniae 225 [6].

Take `C[C@H]1COc2c(N3CCN(C)CC3)c(F)cc3c(=O)c(C(=O)O)cn1c23` [levofloxacin]: in the assay on K. pneumoniae 225 [2], the MIC stood at 2 µg/mL (≈ 5.53 µM).

On to `C[C@@H](O)[C@H]1C(=O)N2C(C(=O)O)=C(S[C@@H]3CN[C@H](C(=O)N(C)C)C3)[C@H](C)[C@H]12` [meropenem], for which the lowest concentration to inhibit growth in the assay with K. pneumoniae 225 [4] (Klebsiella pneumoniae, 225) (MIC) was 0.06 µg/mL (≈ 0.156 µM).

Take `O=C1CN(/N=C/c2ccc([N+](=O)[O-])o2)C(=O)N1` [nitrofurantoin]: the MIC with K. pneumoniae 225 [2] was more than 64 µg/mL.

In the case of `CC1COc2c(N3CCN(C)CC3)c(F)cc3c(=O)c(C(=O)O)cn1c23` (centres unmarked) [ofloxacin], the MIC with K. pneumoniae 225 [2] was found to be 2 µg/mL (≈ 5.53 µM).

Consider `CCN1CCN(C(=O)N[C@@H](C(=O)N[C@@H]2C(=O)N3[C@@H]2SC(C)(C)[C@@H]3C(=O)O)c2ccccc2)C(=O)C1=O` [piperacillin], for which the MIC range was 64 µg/mL in the assay with K. pneumoniae (setting [11]), more than 128 µg/mL with E. coli (setting [12]), more than 128 µg/mL with E. coli (setting [9]) and 128 µg/mL in the assay with P. mirabilis. The compound further came in with an MIC against K. pneumoniae 225 [4] (Klebsiella pneumoniae, 225) of more than 64 µg/mL.

With `CC1(C)S[C@@H]2[C@H](NC(=O)[C@H](C(=O)O)c3ccsc3)C(=O)N2[C@H]1C(=O)O` [ticarcillin], the minimum inhibitory concentration (MIC) against K. pneumoniae 225 [4] (Klebsiella pneumoniae, 225) is more than 64 µg/mL.

As for `NC[C@H]1O[C@H](O[C@H]2[C@H](O)[C@@H](O[C@H]3O[C@H](CO)[C@@H](O)[C@H](N)[C@H]3O)[C@H](N)C[C@@H]2N)[C@H](N)C[C@@H]1O` [tobramycin], in the assay with K. pneumoniae 225 [2], the MicroScan susceptibility result is “Resistant” and the MIC was more than 8 µg/mL.

With amoxicillin/clavulanate, the MIC against K. pneumoniae 225 [4] (NCCLS microdilution, Mueller-Hinton broth, K. pneumoniae 225) is 64 µg/mL. For the same compound, in the assay on E. aerogenes [3], the Disk diffusion susceptibility entry is on record as “resistant”.

With piperacillin/tazobactam, the MIC range was 2 to 4 µg/mL with K. pneumoniae (setting [10]); 16 µg/mL with K. pneumoniae (setting [11]); 1 µg/mL in the assay on E. coli (setting [12]); 32 µg/mL in the assay on E. coli (setting [9]); 0.25 to 0.5 µg/mL in the assay with P. mirabilis. The results for the “Zone Size” value (in [1]; in [5]; in the assay on K. pneumoniae 225 [6]) were 30 mm, 14 mm and 15 mm, respectively.
